Experimental data reported in the NIST ThermoML archive (doi:10.1021/je0499364).

Key:
[1] = Molar enthalpy of transition or fusion; conditions: Crystal
[2] = Crystal
[3] = molar heat capacity at constant pressure; conditions: 101.33 kPa

CCCCCCCCCCCCCCC(=O)OC [methyl pentadecanoate]
Conditions | Molar enthalpy of transition or fusion [kJ/mol] | Triple point temperature [K]
[1] | 54.28 | –
[2] | – | 292.35

[3]
Conditions | molar heat capacity at constant pressure [J/K/mol]
5 K, Crystal | 0.5
10 K, Crystal | 4.15
20 K, Crystal | 21.13
30 K, Crystal | 43.92
40 K, Crystal | 71.36
50 K, Crystal | 97.58
60 K, Crystal | 120.37
70 K, Crystal | 141.42
80 K, Crystal | 159.35
90 K, Crystal | 175.8
100 K, Crystal | 190.15
110 K, Crystal | 203.86
120 K, Crystal | 216.45
130 K, Crystal | 228.03
140 K, Crystal | 239.15
150 K, Crystal | 249.97
160 K, Crystal | 260.57
170 K, Crystal | 272.29
180 K, Crystal | 282.1
190 K, Crystal | 293.1
200 K, Crystal | 304.43
210 K, Crystal | 316.28
220 K, Crystal | 328.72
230 K, Crystal | 341.8
240 K, Crystal | 355.9
250 K, Crystal | 371.28
260 K, Crystal | 387.35
270 K, Crystal | 403.92
280 K, Crystal | 432.13
300 K, Liquid | 524.33
310 K, Liquid | 534.12
320 K, Liquid | 539.26
330 K, Liquid | 544.8
340 K, Liquid | 551.15

CCCCCCCCCCCCCC(=O)OC [methyl tetradecanoate]
Conditions | Molar enthalpy of transition or fusion [kJ/mol] | Triple point temperature [K]
[1] | 52.01 | –
[2] | – | 292.14

[3]
Conditions | molar heat capacity at constant pressure [J/K/mol]
5 K, Crystal | 0.55
10 K, Crystal | 4.56
20 K, Crystal | 21.34
30 K, Crystal | 43.99
40 K, Crystal | 69.2
50 K, Crystal | 93.62
60 K, Crystal | 113.9
70 K, Crystal | 133.41
80 K, Crystal | 150.35
90 K, Crystal | 165.54
100 K, Crystal | 179.38
110 K, Crystal | 192.06
120 K, Crystal | 203.55
130 K, Crystal | 214.52
140 K, Crystal | 224.93
150 K, Crystal | 235.23
160 K, Crystal | 244.79
170 K, Crystal | 254.91
180 K, Crystal | 265.19
190 K, Crystal | 275.63
200 K, Crystal | 286.07
210 K, Crystal | 296.67
220 K, Crystal | 308.85
230 K, Crystal | 321.05
240 K, Crystal | 334.49
250 K, Crystal | 349.48
260 K, Crystal | 368.64
270 K, Crystal | 388.14
280 K, Crystal | 429.3
300 K, Liquid | 500.03
310 K, Liquid | 504.66
320 K, Liquid | 510
330 K, Liquid | 515.86
340 K, Liquid | 522.03
350 K, Liquid | 528.04
